Assay results published in ChEMBL document CHEMBL5370603, “N-(2-Aminophenyl)-benzamide Inhibitors of Class I HDAC Enzymes with Antiproliferative and Antifibrotic Activity” (J Med Chem, 2023).
Activity calls are given as the source filed them. The rule behind the calls is not given here.

How the values were obtained:
[1] = biological target: T1, Protein deacetylase HDAC6 (Homo sapiens, UniProt Q9UBN7); experiment: Inhibition of C-terminal FLAG-tagged human recombinant full length HDAC6 expressed in baculovirus expression system using Boc-Lys(Ac)-AMC as substrate preincubated with enzyme for 15 mins followed by substrate addition and measured after 60 mins by fluorescence based analysis
T1 sequence (Q9UBN7 whole entry): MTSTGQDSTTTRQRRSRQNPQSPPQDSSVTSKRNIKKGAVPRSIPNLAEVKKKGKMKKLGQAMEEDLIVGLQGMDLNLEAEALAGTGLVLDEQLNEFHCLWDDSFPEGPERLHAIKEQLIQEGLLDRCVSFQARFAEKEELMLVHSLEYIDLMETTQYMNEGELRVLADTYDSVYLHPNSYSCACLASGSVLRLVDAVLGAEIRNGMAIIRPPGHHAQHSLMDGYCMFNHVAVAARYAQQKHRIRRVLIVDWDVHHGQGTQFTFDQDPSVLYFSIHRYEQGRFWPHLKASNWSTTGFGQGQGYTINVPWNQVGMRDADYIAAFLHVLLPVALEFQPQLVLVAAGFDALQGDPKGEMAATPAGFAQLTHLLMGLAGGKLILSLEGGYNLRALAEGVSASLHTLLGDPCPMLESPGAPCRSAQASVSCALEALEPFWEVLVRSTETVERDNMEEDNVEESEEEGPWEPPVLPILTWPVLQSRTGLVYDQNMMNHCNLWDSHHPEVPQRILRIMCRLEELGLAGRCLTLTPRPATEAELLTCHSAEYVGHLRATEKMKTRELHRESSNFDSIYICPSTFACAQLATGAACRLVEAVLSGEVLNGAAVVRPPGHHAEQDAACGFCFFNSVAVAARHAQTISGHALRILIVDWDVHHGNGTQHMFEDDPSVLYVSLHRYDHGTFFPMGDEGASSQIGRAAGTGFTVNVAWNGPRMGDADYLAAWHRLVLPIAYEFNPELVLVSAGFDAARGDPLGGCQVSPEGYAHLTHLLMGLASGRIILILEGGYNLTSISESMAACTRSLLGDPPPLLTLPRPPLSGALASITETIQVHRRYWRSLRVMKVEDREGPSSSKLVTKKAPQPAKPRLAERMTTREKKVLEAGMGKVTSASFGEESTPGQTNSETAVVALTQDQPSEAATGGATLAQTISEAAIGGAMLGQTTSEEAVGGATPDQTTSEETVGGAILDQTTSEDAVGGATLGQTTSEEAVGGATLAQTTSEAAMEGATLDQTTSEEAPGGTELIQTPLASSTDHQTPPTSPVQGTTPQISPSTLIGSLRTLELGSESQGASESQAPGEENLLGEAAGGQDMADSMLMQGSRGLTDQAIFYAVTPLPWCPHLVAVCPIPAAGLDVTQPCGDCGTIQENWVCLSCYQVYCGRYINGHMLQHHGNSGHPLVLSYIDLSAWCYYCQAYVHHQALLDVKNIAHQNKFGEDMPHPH

Histone deacetylase 1 [2] = biological target: T2, Histone deacetylase 1 (Homo sapiens, UniProt Q13547); experiment: Inhibition of human recombinant HDAC1 using Ac-Leu-Gly-Lys(Ac)-AMC as substrate preincubated with enzyme for 30 mins followed by substrate addition and measured after 90 mins by fluorescence based analysis
SF-268 = experiment: Antiproliferative activity against human SF-268 cells assessed as inhibition of cell growth incubated for 72 hrs by MTT assay; format: functional, cell-based; conditions: SF-268, 72 h
A549 = experiment: Antiproliferative activity against human A549 cells assessed as inhibition of cell growth incubated for 72 hrs by MTT assay; format: functional, cell-based; conditions: A549, 72 h
Histone deacetylase 1 [3] = biological target: T2, Histone deacetylase 1; experiment: Inhibition of human recombinant HDAC1 using Ac-Leu-Gly-Lys(Ac)-AMC as substrate preincubated with enzyme for 30 mins followed by substrate addition and measured after 90 mins by fluorescence based analysis relative to control; conditions: time 120.0 min
Histone deacetylase 2 = Histone deacetylase 2 (Homo sapiens, UniProt Q92769); experiment: Inhibition of human recombinant HDAC2 using Ac-Leu-Gly-Lys(Ac)-AMC as substrate preincubated with enzyme for 30 mins followed by substrate addition and measured after 90 mins by fluorescence based analysis
Caco-2 = experiment: Antiproliferative activity against human Caco-2 cells assessed as inhibition of cell growth incubated for 72 hrs by MTT assay; format: functional, cell-based; conditions: Caco-2, 72 h
Histone deacetylase 4 = Histone deacetylase 4 (Homo sapiens, UniProt P56524); experiment: Inhibition of N-terminal GST-tagged/C-terminal His tagged human recombinant HDAC4 (627 to 1084 residues) expressed in baculovirus-infected Sf9 cells using Ac-Leu-Gly-Lys(trifluoroAc)-AMC as substrate preincubated with enzyme for 15 mins followed by substrate addition and measured after 60 mins by fluorescence based analysis
Histone deacetylase 8 = biological target: T3, Histone deacetylase 8 (Homo sapiens, UniProt Q9BY41); experiment: Inhibition of C-terminal His-tagged human recombinant full length HDAC8 (1 to 377 residues) expressed in Sf9 cells using Ac-Leu-Gly-Lys(trifluoroAc)-AMC as substrate preincubated with enzyme for 30 mins followed by substrate addition and measured after 90 mins by fluorescence based analysis
T3 sequence (Q9BY41 whole entry): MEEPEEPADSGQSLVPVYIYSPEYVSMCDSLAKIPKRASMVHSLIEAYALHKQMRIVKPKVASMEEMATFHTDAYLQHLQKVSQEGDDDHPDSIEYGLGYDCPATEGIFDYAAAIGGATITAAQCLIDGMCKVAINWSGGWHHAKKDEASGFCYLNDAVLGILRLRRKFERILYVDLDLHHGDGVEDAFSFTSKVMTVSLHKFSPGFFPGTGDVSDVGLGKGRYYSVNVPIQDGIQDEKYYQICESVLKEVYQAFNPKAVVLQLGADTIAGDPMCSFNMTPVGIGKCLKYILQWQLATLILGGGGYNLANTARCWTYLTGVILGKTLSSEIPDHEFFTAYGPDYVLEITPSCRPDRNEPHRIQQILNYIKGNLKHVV

Histone deacetylase 3 = Histone deacetylase 3 (Homo sapiens, UniProt O15379); experiment: Inhibition of human recombinant HDAC3 using Ac-Leu-Gly-Lys(Ac)-AMC as substrate preincubated with enzyme for 30 mins followed by substrate addition and measured after 90 mins by fluorescence based analysis
[4] = biological target: T4, Class 1 histone deacetylase (Homo sapiens) (UniProt Q13547+O15379+Q92769+Q9BY41); experiment: Inhibition of class I HDAC in human A549 cells assessed as downregulation of MYC gene expression at 5 uM incubated for 48 hrs by qRT-PCR analysis; format: cell-based
[5] = biological target: T4, Class 1 histone deacetylase (Homo sapiens); experiment: Inhibition of class I HDAC in human A549 cells assessed as downregulation of STAT3 gene expression at 5 uM incubated for 48 hrs by qRT-PCR analysis; format: cell-based
[6] = biological target: T4, Class 1 histone deacetylase (Homo sapiens); experiment: Inhibition of class I HDAC in human A549 cells assessed as downregulation of EGFR gene expression at 5 uM incubated for 48 hrs by qRT-PCR analysis; format: cell-based
[7] = biological target: T4, Class 1 histone deacetylase (Homo sapiens); experiment: Inhibition of class I HDAC in human A549 cells assessed as downregulation of ERBB2 gene expression at 5 uM incubated for 48 hrs by qRT-PCR analysis; format: cell-based
[8] = biological target: T4, Class 1 histone deacetylase (Homo sapiens); experiment: Inhibition of class I HDAC in human A549 cells assessed as increase in histone H3 acetylation at 5 uM incubated for 48 hrs by immunoblot analysis; format: cell-based
[9] = biological target: T5, Protein deacetylase HDAC6 (Homo sapiens) (UniProt Q9UBN7); experiment: Inhibition of HDAC6 in human A549 cells assessed as increase in acetylated alpha-tubulin level at 5 uM incubated for 48 hrs by immunoblot analysis; format: cell-based
T5 sequence (whole entry): T1 sequence (Q9UBN7 whole entry)

[10] = biological target: T4, Class 1 histone deacetylase (Homo sapiens); experiment: Inhibition of class I HDAC in human A549 cells assessed as downregulation of EGFR protein expression at 5 uM incubated for 48 hrs by western blot analysis; format: cell-based

Histone deacetylase 4, sequence (P56524 whole entry, the tested form may be a part): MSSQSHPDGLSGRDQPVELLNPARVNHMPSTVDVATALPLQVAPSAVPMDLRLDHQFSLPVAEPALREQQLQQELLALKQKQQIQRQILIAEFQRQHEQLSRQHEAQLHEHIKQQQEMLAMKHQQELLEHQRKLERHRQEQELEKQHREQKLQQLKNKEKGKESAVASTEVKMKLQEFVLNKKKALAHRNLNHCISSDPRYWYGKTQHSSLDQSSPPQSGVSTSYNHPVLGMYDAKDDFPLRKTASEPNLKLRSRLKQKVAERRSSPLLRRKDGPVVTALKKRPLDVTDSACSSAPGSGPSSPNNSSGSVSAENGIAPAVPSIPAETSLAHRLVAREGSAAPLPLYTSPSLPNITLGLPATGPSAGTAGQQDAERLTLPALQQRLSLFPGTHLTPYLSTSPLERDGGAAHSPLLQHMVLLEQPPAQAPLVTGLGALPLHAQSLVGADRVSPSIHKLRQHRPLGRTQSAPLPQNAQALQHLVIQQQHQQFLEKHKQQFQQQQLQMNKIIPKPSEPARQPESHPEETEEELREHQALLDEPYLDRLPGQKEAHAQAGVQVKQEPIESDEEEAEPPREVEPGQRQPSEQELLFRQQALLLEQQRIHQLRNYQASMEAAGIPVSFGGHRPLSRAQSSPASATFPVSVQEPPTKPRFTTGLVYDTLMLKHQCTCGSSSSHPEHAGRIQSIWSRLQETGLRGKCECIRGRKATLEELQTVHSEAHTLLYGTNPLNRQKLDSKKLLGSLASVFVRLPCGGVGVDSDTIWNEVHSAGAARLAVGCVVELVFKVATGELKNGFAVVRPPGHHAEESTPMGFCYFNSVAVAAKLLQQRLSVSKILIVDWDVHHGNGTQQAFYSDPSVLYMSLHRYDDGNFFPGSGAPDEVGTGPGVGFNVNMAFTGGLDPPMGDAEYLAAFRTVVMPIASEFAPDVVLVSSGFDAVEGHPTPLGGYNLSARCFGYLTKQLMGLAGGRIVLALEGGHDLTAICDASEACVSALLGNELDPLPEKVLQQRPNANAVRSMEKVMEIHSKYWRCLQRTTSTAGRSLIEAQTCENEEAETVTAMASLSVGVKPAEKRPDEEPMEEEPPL
Histone deacetylase 2, sequence (Q92769 whole entry): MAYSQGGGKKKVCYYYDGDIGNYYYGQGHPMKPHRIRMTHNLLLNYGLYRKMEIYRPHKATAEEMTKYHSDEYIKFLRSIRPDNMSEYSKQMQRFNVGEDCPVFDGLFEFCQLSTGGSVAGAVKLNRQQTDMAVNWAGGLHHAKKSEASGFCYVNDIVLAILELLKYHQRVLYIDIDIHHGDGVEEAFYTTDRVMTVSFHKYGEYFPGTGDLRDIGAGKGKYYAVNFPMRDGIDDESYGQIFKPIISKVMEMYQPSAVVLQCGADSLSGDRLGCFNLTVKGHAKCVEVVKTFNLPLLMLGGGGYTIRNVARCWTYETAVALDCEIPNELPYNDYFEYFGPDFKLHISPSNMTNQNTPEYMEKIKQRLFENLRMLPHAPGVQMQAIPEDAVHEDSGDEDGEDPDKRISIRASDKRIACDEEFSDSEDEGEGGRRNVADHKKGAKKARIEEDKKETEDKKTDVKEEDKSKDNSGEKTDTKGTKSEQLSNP
T2 sequence (Q13547 whole entry): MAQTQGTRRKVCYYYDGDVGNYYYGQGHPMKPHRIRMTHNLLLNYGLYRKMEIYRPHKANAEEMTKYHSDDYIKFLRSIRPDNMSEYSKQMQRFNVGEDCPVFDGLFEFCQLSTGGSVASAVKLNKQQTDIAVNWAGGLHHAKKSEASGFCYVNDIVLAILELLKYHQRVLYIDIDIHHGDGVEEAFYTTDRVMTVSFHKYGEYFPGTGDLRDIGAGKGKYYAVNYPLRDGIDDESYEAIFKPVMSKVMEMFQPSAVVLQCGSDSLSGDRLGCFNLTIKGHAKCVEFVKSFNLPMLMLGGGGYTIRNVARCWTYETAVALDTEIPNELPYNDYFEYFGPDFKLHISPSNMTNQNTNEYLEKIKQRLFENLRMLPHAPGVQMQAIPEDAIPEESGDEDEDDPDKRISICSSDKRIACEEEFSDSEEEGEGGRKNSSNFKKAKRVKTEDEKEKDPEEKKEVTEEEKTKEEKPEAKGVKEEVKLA
Histone deacetylase 3, sequence (O15379 whole entry): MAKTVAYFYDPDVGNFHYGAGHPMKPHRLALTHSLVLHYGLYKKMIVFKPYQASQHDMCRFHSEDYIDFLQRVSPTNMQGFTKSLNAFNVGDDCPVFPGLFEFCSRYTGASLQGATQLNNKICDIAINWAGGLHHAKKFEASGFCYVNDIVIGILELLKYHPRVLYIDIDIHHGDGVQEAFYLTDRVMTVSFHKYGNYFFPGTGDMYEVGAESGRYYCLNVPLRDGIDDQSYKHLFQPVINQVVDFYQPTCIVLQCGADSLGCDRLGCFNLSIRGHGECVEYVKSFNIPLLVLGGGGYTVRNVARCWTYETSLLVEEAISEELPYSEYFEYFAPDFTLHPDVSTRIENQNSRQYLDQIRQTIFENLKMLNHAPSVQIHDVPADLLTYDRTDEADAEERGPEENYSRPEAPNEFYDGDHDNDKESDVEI

IC50 [1] | IC50 (Histone deacetylase 1 [2]) | IC50 (A549) | IC50 (Histone deacetylase 2) | SMILES | IC50 (SF-268) | other results
> 10 µM | 0.111 µM | > 25 µM | – | Nc1ccccc1NC(=O)c1ccc(COc2ccc(CNC(=O)C3CCCO3)cc2)cc1 (stereo not given) | > 25 µM | inhibition (Histone deacetylase 1 [3]): 75%
> 10 µM | 0.2 µM | 6.8 µM | – | Nc1ccccc1NC(=O)c1ccc(COc2ccc(CNC(=O)c3ccccn3)cc2)cc1 | 9.8 µM | –
> 10 µM | > 10 µM | > 25 µM | – | O=C(Nc1ccccc1)c1ccc(COc2ccc(CNC(=O)[C@@H]3CCC(=O)N3Cc3ccccc3)cc2)cc1 | > 25 µM | –
> 100 µM | 0.084 µM | 15 µM | 0.217 µM | Nc1ccccc1NC(=O)c1ccc(COc2ccc(CN3C(=O)CC[C@H]3CC(=O)NCc3ccccc3)cc2)cc1 | 7.1 µM | –
> 100 µM | 0.216 µM | 6.9 µM | 0.348 µM | Nc1ccccc1NC(=O)c1ccc(COc2ccc(CNC(=O)[C@@H]3CCC(=O)N3Cc3ccc(F)cc3)cc2)cc1 | 6.5 µM | IC50 (Caco-2): 1.9 µM
> 10 µM | > 10 µM | > 25 µM | – | O=C(NCc1ccc(OCc2ccc(B(O)O)cc2)cc1)[C@@H]1CCC(=O)N1Cc1ccccc1 | > 25 µM | –
> 100 µM | 0.055 µM | 10 µM | 0.072 µM | Nc1ccccc1NC(=O)c1ccc(COc2ccc(CNC(=O)[C@@H]3CCCN3)cc2)cc1 | 3.3 µM | IC50 (Histone deacetylase 4): > 100 µM; IC50 (Histone deacetylase 8): > 10 µM; IC50 (Histone deacetylase 3): 0.061 µM
> 10 µM | 0.43 µM | > 25 µM | – | Nc1ccccc1NC(=O)c1ccc(COc2ccc(NC(=O)[C@@H]3CCC(=O)N3Cc3ccccc3)cc2)cc1 | > 25 µM | inhibition (Histone deacetylase 1 [3]): 75%
> 100 µM | 0.092 µM | 3.9 µM | 0.143 µM | Nc1ccccc1NC(=O)c1ccc(COc2ccc(CNC(=O)[C@H]3CCC(=O)N3Cc3ccccc3)cc2)cc1 | 3.4 µM | inhibition [4]: inactive; inhibition [5]: inactive; inhibition [6]: Active; IC50 (Caco-2): 1.9 µM; IC50 (Histone deacetylase 4): > 100 µM; inhibition [7]: inactive; inhibition [8]: Active; IC50 (Histone deacetylase 8): > 10 µM; IC50 (Histone deacetylase 3): 0.431 µM; inhibition [9]: inactive; inhibition [10]: Active
> 10 µM | 0.182 µM | 5.2 µM | – | Nc1ccccc1NC(=O)c1ccc(COc2ccc(CNC(=O)c3cc4ccccc4[nH]3)cc2)cc1 | 16.5 µM | –
> 100 µM | 0.093 µM | 4.7 µM | 0.083 µM | Nc1ccccc1NC(=O)c1ccc(COc2ccc(CNC(=O)[C@H]3CCCN3Cc3ccccc3)cc2)cc1 | 3.1 µM | –
> 100 µM | 0.13 µM | 5.1 µM | 0.196 µM | Nc1ccccc1NC(=O)c1ccc(COc2ccc(CNC(=O)[C@@H]3CCCN3Cc3ccc(F)cc3)cc2)cc1 | 4.8 µM | –
> 10 µM | 1.71 µM | 14.6 µM | – | CC(C)(C)OC(=O)NCc1ccc(OCc2ccc(C(=O)Nc3ccccc3N)cc2)cc1 | 8.6 µM | –
> 100 µM | 0.113 µM | 3.7 µM | 0.192 µM | Nc1ccccc1NC(=O)c1ccc(COc2ccc(CNC(=O)[C@@H]3CCCN3Cc3ccccc3)cc2)cc1 | 3.4 µM | inhibition [4]: inactive; inhibition [5]: inactive; inhibition [6]: Active; IC50 (Caco-2): 1.9 µM; IC50 (Histone deacetylase 4): > 100 µM; inhibition [7]: inactive; inhibition [8]: Active; IC50 (Histone deacetylase 8): > 10 µM; IC50 (Histone deacetylase 3): 0.387 µM; inhibition [9]: inactive; inhibition [10]: Active
> 10 µM | 0.216 µM | 16 µM | – | Nc1ccccc1NC(=O)c1ccc(COc2ccc(CNC(=O)[C@@H]3CCCN3C(=O)c3ccccc3)cc2)cc1 | 9.2 µM | –
> 100 µM | 0.051 µM | 9.2 µM | 0.082 µM | Nc1ccccc1NC(=O)c1ccc(COc2ccc(CNC(=O)[C@@H]3CCC(=O)N3Cc3ccc(Br)cc3)cc2)cc1 | 6.6 µM | –
> 10 µM | > 10 µM | > 25 µM | – | O=C(O)c1ccc(COc2ccc(CNC(=O)[C@@H]3CCC(=O)N3Cc3ccccc3)cc2)cc1 | > 25 µM | –
0.143 µM | 1.98 µM | > 25 µM | – | O=C(NO)c1ccc(COc2ccc(CNC(=O)[C@@H]3CCC(=O)N3Cc3ccccc3)cc2)cc1 | – | –
> 10 µM | > 10 µM | > 25 µM | – | O=C(NCc1ccccc1)c1ccc(COc2ccc(CNC(=O)[C@@H]3CCC(=O)N3Cc3ccccc3)cc2)cc1 | > 25 µM | –
> 10 µM | > 10 µM | > 25 µM | – | O=C(O)c1ccc(COc2ccc(CNC(=O)[C@@H]3CCCN3Cc3ccccc3)cc2)cc1 | > 25 µM | –
> 10 µM | 0.202 µM | > 25 µM | – | Nc1ccccc1NC(=O)c1ccc(COc2ccc(CNC(=O)[C@@H]3CCCN3C(=O)OCc3ccccc3)cc2)cc1 | 12.7 µM | –
> 10 µM | > 10 µM | > 25 µM | – | O=C(O)c1ccc(COc2ccc(CNC(=O)[C@@H]3CCC(=O)N3Cc3ccc(Br)cc3)cc2)cc1 | > 25 µM | –
> 10 µM | 0.1 µM | > 25 µM | – | NCc1ccc(OCc2ccc(C(=O)Nc3ccccc3N)cc2)cc1 | 8.5 µM | IC50 (Histone deacetylase 4): > 100 µM; IC50 (Histone deacetylase 8): > 10 µM; IC50 (Histone deacetylase 3): 0.052 µM
